Results reported in paper PMC2952919, “Error-Prone Translesion DNA Synthesis by Escherichia coli DNA Polymerase IV (DinB) on Templates Containing 1,2-dihydro-2-oxoadenine” (Journal of Nucleic Acids, 2010).

Molecular target: T1, Pol IV (DinB; HT-dinB) (Escherichia coli, UniProt Q47155)
T1 construct: full-length DinB with His tag (plasmid pET16B-DinB), expressed in E. coli BL21(DE3)/pLysS; tag kept
T1 sequence (Q47155 1-351): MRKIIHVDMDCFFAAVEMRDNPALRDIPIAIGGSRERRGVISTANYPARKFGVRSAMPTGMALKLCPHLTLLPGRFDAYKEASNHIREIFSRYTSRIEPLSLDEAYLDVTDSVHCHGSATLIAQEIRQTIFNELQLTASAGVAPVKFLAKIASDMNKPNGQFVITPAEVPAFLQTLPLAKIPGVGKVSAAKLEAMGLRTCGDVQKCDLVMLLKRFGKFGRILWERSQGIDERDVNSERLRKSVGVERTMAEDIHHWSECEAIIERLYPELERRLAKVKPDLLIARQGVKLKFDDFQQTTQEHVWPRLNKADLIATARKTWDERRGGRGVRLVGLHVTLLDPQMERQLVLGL
Test: primer extension, […]-labelled primer, gel imaging
Type: biochemical
Conditions: insertion opposite 2-oxodA (primer 3/template 2, 50 fmol in 10 μl); Pol IV 50 nM; 20°C, 60 min; pH 7.4, 7.5 mM MgCl2; dNTP 0.02~500 μM; printed Km unit is implausible (a rate unit)

| Structure (SMILES) | Km |
| --- | --- |
| Cc1cn([C@H]2C[C@H](O)[C@@H](COP(=O)(O)OP(=O)(O)OP(=O)(O)O)O2)c(=O)[nH]c1=O [dTTP] | 25.6 fmol/mL/min |
| Nc1ccn([C@H]2C[C@H](O)[C@@H](COP(=O)(O)OP(=O)(O)OP(=O)(O)O)O2)c(=O)n1 [dCTP] | 8.5 fmol/mL/min |
